Laboratory results: patent US12351602B2, “Methods of inactivating viral contaminants” (Ichnos Sciences SA, priority 2017, dated 2025)

Tested on: MLV
Experiment: VRV study, Arginine treatment of PA eluate
Experimental: Based on the stability and activity studies reported in Example 1, the most promising viral inactivation methods were further tested for their ability to inactivate viruses. The effectiveness of the viral inactivation was evaluated by doing a spiking study at Bioreliance. Test samples were taken before and after each treatment and analyzed for viral titre. First, VRV study on Arginine treatment was carried out.
Only one virus, MLV, which is a typical model virus used for biological products derived from CHO cell lines such as monoclonal antibody, was used for this study. A total of 7 runs were performed. PA eluate from development runs was used as starting material. Different stock buffers of Arginine at the different pH (pH 4.0, pH 4.75, pH 4.79 and pH 5.5) were used to reach the target pH and concentration. The samples were neutralized using 250 mM Histidine pH 12.0 buffer around pH 6.0 to stop the reaction.
Log reduction values was calculated with respect to the neutralized load sample, a 5 plate large volume plating as well as a standard titration was performed on the t=60 min sample. The neutralized load hold sample was held at 16.0° C. to 20.0° C. for 60 minutes (runs 2, 4 and 6) or 120 minutes (runs 1, 3, 5 and 7).

**Q.** How did the virus clearance (Arginine treatment at pH 4.0) turn out when `N=C(N)NCCC[C@H](N)C(=O)O` [Arginine] was run?
**A.** The virus clearance was “effective (“effective”, when RF is greater than 4 log10)”.

**Q.** And the log10 reduction factor (Run 5, Arginine concentration 0.38, pH 4.79, 120 min)?
**A.** Its log10 reduction factor is “no reduction”.

**Q.** And the log10 reduction factor (Run 7, Arginine concentration 0.8, pH 5.5, 120 min)?
**A.** The log10 reduction factor was “no reduction”.
